This passage reports IC50 and melting point results from patent publication US7622487B2, “Piperidine derivative, process for producing the same, and use” (Takeda Pharmaceutical Company Limited, priority 2002, dated 2009).

Where a name gives a salt, the structure may show the parent alone.

In one series the target is T1, substance P receptor from human lymphoblast cells (IM-9) (Homo sapiens, UniProt P25103).
T1 construct: The receptor was prepared from human lymphoblast cells (IM-9); endogenous in cells; host or cells: IM-9 human lymphoblast cells (crude membrane fraction, 40,000xG pellet)
T1 sequence (P25103 whole entry): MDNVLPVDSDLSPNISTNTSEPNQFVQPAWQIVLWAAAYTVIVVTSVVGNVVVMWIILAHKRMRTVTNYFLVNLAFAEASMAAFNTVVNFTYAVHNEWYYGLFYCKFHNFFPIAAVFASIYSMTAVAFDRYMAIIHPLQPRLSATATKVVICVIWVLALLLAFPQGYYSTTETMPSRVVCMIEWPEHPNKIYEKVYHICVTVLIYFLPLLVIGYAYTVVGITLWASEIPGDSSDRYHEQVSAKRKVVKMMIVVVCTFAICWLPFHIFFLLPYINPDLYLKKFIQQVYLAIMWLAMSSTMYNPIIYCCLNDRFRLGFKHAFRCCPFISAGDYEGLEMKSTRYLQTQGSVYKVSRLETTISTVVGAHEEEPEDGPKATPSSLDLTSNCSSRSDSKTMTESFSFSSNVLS
Kind of series: Radioligand receptor binding inhibitory activity (125I-BHSP binding, receptor from human lymphoblast cells (IM-9)).
Details: not given
The method, then:
Radioligand receptor binding inhibitory activity (Binding inhibitory activity using receptor from human lymphoblast cells (IM-9))
The method of M. A. Cascieri et al., “Molecular Pharmacology 42, p. […] The receptor was prepared from human lymphoblast cells (IM-9). IM-9 cells (2×10^5 cells/ml) were inoculated and incubated for 3 days (one liter), which was then subjected to centrifuge for 5 minutes at 500×G to obtain cell pellets. […] The residue was twice washed with 30 ml of the above-mentioned buffer, which was then preserved frozen (−80° C.) as a specimen of the receptor.
The specimen was suspended in a reaction buffer (50 mM Tri-HCl buffer (pH 7.4), 0.02% bovine serum albumin, 1 mM phenylmethylsulfonyl fluoride, 2 μg/ml chymostatin, 40 μg/ml bacitracin and 3 mM manganese chloride) to have protein in the concentration of 0.5 mg/ml of protein and 100 μl portion of the suspension was used in the reaction. […] The amount of nonspecific binding was determined by adding substance P at a final concentration of 2×10^−6 M.
After the reaction, using a cell harvester (290 PHD, Cambridge Technology, Inc, U.S.A.), rapid filtration was carried out through a glass filter (GF/B, Whatman, U.S.A.) to stop the reaction. After washing three times with 250 μl of 50 mM Tris-HCl buffer (pH 7.4) containing 0.02% bovine serum albumin, the radioactivity remaining on the filter was determined with a gamma counter. Before use, the filter was immersed in 0.1% polyethyleneimine for 24 hours and air-dried.
The term IC50 denotes the concentration that inhibits the measured activity by half. Turning to `COc1ccc(-n2nnnc2C(F)(F)F)cc1CNC1CCN(C(C)=O)CC1c1ccccc1` (racemic) [Example 762], the 50% inhibitory concentration (IC50) was found to be 0.049 nM.

Take `COc1ccc(-n2nnnc2C(F)(F)F)cc1CNC1CCN(C(=O)CNC(C)=O)CC1c1ccccc1` (racemic) [Example 753]: the IC50 was 0.073 nM.

Molecule `COc1ccc(-n2nnnc2C(F)(F)F)cc1CNC1CCN(C(=O)CCNC(C)=O)CC1c1ccccc1` (racemic) [Example 761] gave an IC50 of 0.054 nM.

The same series, now with this note: 125I-BHSP binding, receptor from human lymphoblast cells (IM-9), 25° C., 30 minutes; read-out: IC50 Value.
As for `CC(=O)N1CCC(C(=O)N2CC[C@H](OCc3cc(C(F)(F)F)cc(C(F)(F)F)c3)[C@H](c3ccccc3)C2)CC1` [Example 70, (+)-(3R,4S)-1-[(1-Acetyl-4-piperidinyl)carbonyl]-4-[[3,5-bis(trifluoromethyl)benzyl]oxy]-3-phenylpiperidine], the IC50 was determined as 0.15 nM.

`CCNC(=O)N1CCC(NCc2cc(-n3nnnc3C(F)(F)F)cc3c2OCC3)C(c2ccccc2)C1` (single isomer, unassigned; (-)) [Example 84, (−)-cis-N-Ethyl-3-phenyl-4-[[[5-[5-(trifluoromethyl)-1-H-tetrazol-1-yl]-2,3-dihydro-1-benzofuran-7-yl]methyl]amino]-1-piperidinecarboxamide hydrochloride]: the half-maximal inhibitory concentration (IC50) came out at 0.051 nM.

For the molecule `COc1ccc(-n2nnnc2C(F)(F)F)cc1CNC1CCN(C(=O)Cn2cnnn2)CC1c1ccccc1` (racemic) [Example 757], the IC50 is 0.067 nM.

For the molecule `CNC(=O)N1CCC(OCc2cc(C(F)(F)F)cc(C(F)(F)F)c2)C(c2ccccc2)C1` (single isomer, unassigned; (+)) [Example 413, (+)-cis-4-[[3,5-Bis(trifluoromethyl)benzyl]oxy]-N-methyl-3-phenyl-1-piperidinecarboxamide], the IC50 turned out to be 0.23 nM.

As to `COc1ccc(-n2nnnc2C(F)(F)F)cc1CNC1CCN(C(=O)C2CCN(C(C)=O)CC2)CC1c1ccccc1` (single isomer, unassigned; (-)) [Example 81, (−)-cis-1-[(1-Acetyl-4-piperidinyl)carbonyl]-N-[2-methoxy-5-[5-(trifluoroinethyl)-1H-tetrazol-1-yl]benzyl]-3-phenyl-4-piperidineamine hydrochloride], the half-maximal inhibitory concentration (IC50) is 0.058 nM.

For `COCC(=O)N1CC[C@H](NCc2cc(-n3nnnc3C(F)(F)F)ccc2OC)[C@H](c2ccccc2)C1` (single isomer, unassigned) [Example 78, (+)-cis-1-(Methoxyacetyl)-N-[2-methoxy-5-[5-(trifluoromethyl)-1H-tetrazol-1-yl]benzyl]-3-phenyl-4-piperidineamine hydrochloride], the IC50 turned out to be 0.06 nM.

In the case of `CC(=O)N1CCC(C(=O)N2CC[C@H](NCc3cc(-n4nnnc4C(F)(F)F)cc4c3OCC4)[C@H](c3ccccc3)C2)CC1` (single isomer, unassigned) [Example 88, (−)-cis-1-[(1-Acetyl-4-piperidinyl)carbonyl]-3-phenyl-N-[[5-[5-(trifluoromethyl)-1H-tetrazol-1-yl]-2,3-dihydro-1-benzofuran-7-yl]methyl]-4-piperidineamine hydrochloride], the IC50 amounted to 0.06 nM.

With `CNC(=O)N1CC[C@H](NCc2cc(-n3nnnc3C(F)(F)F)ccc2OC)[C@H](c2ccccc2)C1` (single isomer, unassigned) [Example 72, (+)-cis-4-[[2-Methoxy-5-[5-(trifluoromethyl)-1H-tetrazol-1-yl]benzyl]amino]-N-methyl-3-phenyl-1-piperidinecarboxamide hydrochloride], the IC50 amounted to 0.032 nM.

On to `CNC(=O)N1CCC(NCc2cc(-n3nnnc3C(F)(F)F)cc3c2OCC3)C(c2ccccc2)C1` (racemic) [Example 722], for which the IC50 came out at 0.11 nM.

Turning to `COc1ccc(-n2nnnc2C(F)(F)F)cc1CNC1CCN(C(=O)CS(C)(=O)=O)CC1c1ccccc1` (racemic) [Example 763], the IC50 was 0.08 nM.

With `COc1ccc(-n2nnnc2C(F)(F)F)cc1CNC1CCN(C(=O)CO)CC1c1ccccc1` (racemic) [Example 760], the IC50 came to 0.085 nM.

`COc1ccc(-n2nnnc2C(F)(F)F)cc1CNC1CCN(C(=O)C2CCN(S(C)(=O)=O)CC2)CC1c1ccccc1` (racemic) [Example 755]: the 50% inhibitory concentration (IC50) was 0.096 nM.

Take `CCNC(=O)N1CCC(NCc2cc(OC(F)(F)F)ccc2OC)C(c2ccccc2)C1` (single isomer, unassigned; (+)) [Example 613, (+)-cis-N-Ethyl-4-[[2-methoxy-5-(trifluoromethoxy)benzyl]amino]-3-phenyl-1-piperidinecarboxamide]: the IC50 came to 0.07 nM.

Take `COc1ccc(-n2nnnc2C(F)(F)F)cc1CNC1CCN(C(=O)CN2C(=O)CCC2=O)CC1c1ccccc1` (racemic) [Example 764]: the IC50 amounted to 0.042 nM.

In the case of `CCNC(=O)N1CC[C@H](NCc2cc(-n3nnnc3C(F)(F)F)ccc2OC)[C@H](c2ccccc2)C1` (single isomer, unassigned) [Example 75, (+)-cis-N-Ethyl-4-[[2-methoxy-5-[5-(trifluoromethyl)-1H-tetrazol-1-yl]benzyl]amino]-3-phenyl-1-piperidinecarboxamide hydrochloride], the IC50 worked out at 0.025 nM.

Tested on in a further series: not given
Assay: not given
Details: not given
As a reminder, the melting point is the temperature of the solid-liquid transition. Regarding `CNC(=O)N1CC[C@H](OCc2cc(C(F)(F)F)cc(C(F)(F)F)c2)[C@H](Cc2ccccc2)C1` (relative stereo) [Example 405, cis-3-Benzyl-4-[[3,5-bis(trifluoromethyl)benzyl]oxy]-N-methyl-1-piperidinecarboxamide], the melting point lay in the range of 160 to 161 °C.
